Several values for one entry are separate records, joined by “and”; a condition that tells them apart may be missing. Equal entries are not always repeated. Where two headings read alike, the source gives them in different places.
Columns and labels:
[1] = Pharmacokinetic experiment in rats; type: in vivo, Sprague-Dawley rats; parameters: Cl—pred: unit not given here; settings: for AUC(0-t) / Cmax / MRT inf / Vd: male, Sprague-Dawley, rat, plasma; for MRT inf: read-out: MRTINF—pred; for Vd: read-out: Vz—pred; for F: oral 20 mg/kg vs IV 2 mg/kg
Description: 9 Male Sprague-Dawley rats, 7-8 weeks old, weighted 210 g, divided into 3 groups with 3 rats in each group, were intravenously (2 mg/kg) or orally (20 mg/kg) given a single dose of compound, and differences in pharmacokinetics of the rats were compared.
Rats were fed with a standard diet and water. Fasting began 16 hours before the test. The drugs were dissolved in PEG400 and dimethyl sulfoxide. Blood was collected from the eyelids at a time point of 0.083 hour, 0.25 hour, 0.5 hour, 1 hour, 2 hours, 4 hours, 6 hours, 8 hours, 12 hours, and 24 hours after administration.
Rats were briefly anesthetized after inhalation of ether, and 300 μL of blood samples were collected from the eyelids to test tubes. There was 30 μL of 1% heparin salt solution in the test tube. The tubes were dried overnight at 60° C. before use. After the blood sample was collected at the last time point, rats were anesthetized with ether and sacrificed.
Immediately after the collection, blood samples were sufficiently mixed by gently inverting the tube at least 5 times, and were placed on ice. Blood samples were centrifuged at 5000 rpm for 5 minutes at 4° C. to separate plasma from red blood cells. 100 μL of the plasma was pipetted into a clean plastic centrifuge tube, marking the name of the compound and collecting time. Plasma was stored at −80° C. prior to analysis. The concentration of the compounds disclosed herein in plasma was determined by LC-MS/MS. Pharmacokinetic parameters were calculated based on drug concentrations in plasma of each animal at different time points.

[2] = target: T1, Ba/F3 Bcr-Abl^T315I cells (Homo sapiens, UniProt P00519, T315I, cells depend on it); assay: Cytotoxicity experiment, Ba/F3 Bcr-Abl T315I cells (CellTiter-Glo); type: cell-based; settings: 3 days, read-out: Ba/F3 Bcr-Abl1^T315I IC50
T1 construct: Ba/F3 Bcr-Abl1^T315I IC50; other: Ba/F3 Bcr-Abl T315I cells, 3 days; fused on or other part: P11274 (Breakpoint cluster region protein)
Description: (§1) Example 13: Cytotoxicity Experiment
(§2) The inhibitory effect of the Example compounds on the activity of Ba/F3 parent cell, Ba/F3 Bcr-Abl^T315I cell was examined.
(§3) 1. Preparation of cell plate: Ba/F3 parental cells, Ba/F3 Bcr-Abl^T315I cells were seeded in 96-well plates, and 8 ng/ml IL-3 was added to Ba/F3 parental cells. The cell plates were placed in carbon dioxide culture and incubated overnight.
(§4) 2. Preparation of test compounds: The test compounds were dissolved in DMSO and subjected to a 3.16-fold gradient dilution in triplicate, 9 concentrations were obtained, starting from the concentration of 10 μM.
(§5) 3. Treatment of Cells with compounds: Compounds at various concentrations were transferred to cell plates. The cell plates were incubated in a carbon dioxide incubator for 3 days.
(§6) 4. Detection: CellTiter-Glo4 reagent was added to the cell plates, which were incubated for 30 minutes at room temperature to stabilize the luminescence signal. Readings were performed using a PerkinElmer Envision multi-label analyzer.

Ba/F3 parent cells = assay: Cytotoxicity experiment, Ba/F3 parent cells (CellTiter-Glo); type: cell-based; settings: Mus musculus, BaF3, 72 h; Ba/F3 parent cells with 8 ng/ml IL-3, 3 days
Description: as §1, §2, §3, §4, §5, §6

[3] = tested on: BA/F3 (BCR-ABL^T315I) cells; assay: Pharmacodynamic evaluation in BA/F3 (BCR-ABL T315I) subcutaneous tumor model; type: in vivo, NOD/SCID mice; settings: 15 mg/kg twice a day
Description: Feeding environment: SPF level.
Each NOD/SCID mouse was subcutaneously inoculated with 5×10^6 BA/F3 (BCR-ABL^T315I) cells in the right dorsal area, wherein the cells were resuspended in PBS (0.1 ml/mouse), to establish a subcutaneous tumor model. […] The efficacy was evaluated according to the relative tumor growth inhibition rate (TGI), and the safety evaluation was performed according to the body weight changes and deaths of the animals.
The experimental protocols for animal experiment disclosed herein were reviewed and approved by the CrownBio IACUC committee. During the experiment, the procedures of the animal experiment were carried out according to the requirements of AAALAC. After tumor inoculation, the effects of tumor growth and treatment on normal animal behavior were routinely monitored, including experimental animal activity, feeding and drinking, weight gain or loss, eye, hair and other abnormalities. Abnormal clinical symptoms observed during the experiment were recorded in the raw data. Mice body weight and tumor size were measured and recorded three times per week during the experiment. The mice were weighed before each administration and administered according to the weight thereof.
Relative tumor growth inhibition rate TGI (%):
T/C % is the relative tumor proliferation rate, that is, the percentage of tumor volume or tumor weight of the treatment group and the control group at a certain time point. T and C are the relative tumor volume (RTV) or tumor weight (TW) of the treatment group and the control group at a specific time point, respectively.
All experimental results were expressed as mean±standard error (x±s), and the significant difference of the tumor volume at 12 days after grouping between the control group and each treatment group was evaluated with one-way ANOVA, and significant difference of the tumor volume between the control group and each treatment group or between each treatment group was evaluated using Games-Howell (heterogeneity of variance), p<0.05 was considered to be significant.

[4] = type: in vivo; settings: 15 mg/kg twice a day

SMILES	Vz—pred ([1]; PO 20 mg/kg single dose)	AUC(0-t) ([1]; IV 2 mg/kg single dose)	Vd ([1]; IV 2 mg/kg single dose)	AUC(0-t) ([1]; PO 20 mg/kg single dose)	Cmax ([1]; PO 20 mg/kg single dose)	F [1]	GI50 [2]	IC50 (Ba/F3 parent cells)	also measured
O=C(Nc1ccc(OC(F)(F)Cl)cc1)c1cnc(N2CC[C@@H](O)C2)c(-c2cnccn2)c1 [Example 1, (R)-6-(3-hydroxypyrrolidin-1-yl)-5-(pyrazin-2-yl)-N-(4-(chlorodifluoromethoxy)phenyl)nicotinamide]	1.68 L/kg	5700 ng·h/mL	0.7 L/kg	38000 ng·h/mL	4330 ng/mL	66.68%	≤ 100 nM	> 1000 nM	Cl—pred ([1]; IV 2 mg/kg single dose): 0.35; Cl—pred ([1]; PO 20 mg/kg single dose): 0.54; Cmax ([1]; IV 2 mg/kg single dose): 4820 ng/mL; MRT inf ([1]; IV 2 mg/kg single dose): 1.37 h; MRT inf ([1]; PO 20 mg/kg single dose): 5.43 h
O=C(Nc1ccc(OC(F)(F)Cl)cc1)c1cnc(N2CC[C@@H](O)C2)c(-c2ccnnc2)c1 [Example 3, (R)-6-(3-hydroxypyrrolidin-1-yl)-5-(pyridazine-4-yl)-N-(4-(chlorodifluoromethoxy)phenyl)nicotinamide]							500 to 1000 nM	> 1000 nM	
Nc1ncc(-c2cc(C(=O)Nc3ccc(OC(F)(F)Cl)cc3)cnc2N2CC[C@@H](O)C2)nn1 [Example 4, (R)-6-(3-hydroxypyrrolidin-1-yl)-5-(3-amino-1,2,4-triazin-6-yl)-N-(4-(chlorodifluoromethoxy)phenyl)nicotinamide]							100 to 500 nM	> 1000 nM	
O=C(Nc1ccc(OC(F)(F)Cl)cc1)c1cnc(N2CC[C@@H](O)C2)c(-c2cncnn2)c1 [Example 5, (R)-6-(3-hydroxypyrrolidin-1-yl)-5-(1,2,4-triazin-6-yl)-N-(4-(chlorodifluoromethoxy)phenyl)nicotinamide]							100 to 500 nM	> 1000 nM	
O=C(Nc1ccc(OC(F)(F)Cl)cc1)c1cnc(N2CC[C@@H](O)C2)c(-c2ccn[nH]2)c1 [ABL-001, (R)—N-(4-(chlorodifluoromethoxy)phenyl)-6-(3-hydroxypyrrolidin-1-yl)-5-(1H-pyrazol-5-yl)nicotinamide, reference compound]	5.14 L/kg	6900 ng·h/mL	0.54 L/kg	13700 ng·h/mL	1770 ng/mL	19.86%			
O=C(Nc1ccc(OC(F)(F)Cl)cc1)c1cnc(N2CC[C@@H](F)C2)c(-c2cnccn2)c1 [Example 7, (R)-6-(3-fluoropyrrolidin-1-yl)-5-(pyrazin-2-yl)-N-(4-(chlorodifluoromethoxy)phenyl)nicotinamide]	2.52 L/kg	3740 ng·h/mL	0.79 L/kg	23100 ng·h/mL	2370 ng/mL	61.95%	≤ 100 nM	> 1000 nM	Cl—pred ([1]; IV 2 mg/kg single dose): 0.54; Cl—pred ([1]; PO 20 mg/kg single dose): 0.90; Cmax ([1]; IV 2 mg/kg single dose): 4510 ng/mL; MRT inf ([1]; IV 2 mg/kg single dose): 1.14 h; MRT inf ([1]; PO 20 mg/kg single dose): 5.43 h; Tumor volume (x ± S) ([3]; at day 2 after grouping): 175 ± 17 mm^3; Tumor volume (x ± S) ([3]; at day 5 after grouping): 237 ± 27 mm^3; Tumor volume (x ± S) ([3]; at day 8 after grouping): 432 ± 24 mm^3; Tumor volume (x ± S) ([3]; at day 10 after grouping): 590 ± 51 mm^3; Tumor volume (x ± S) ([3]; at day 12 after grouping): 790 ± 64 mm^3; Tumor volume (x ± S) ([3]; at day 15 after grouping): 1145 mm^3 and 1145 ± 116 mm^3; relative tumor growth inhibition rate TGI ([3]; at day 15 after grouping): 53.1%; Tumor volume (x ± S) ([3]; at day 17 after grouping): 1532 ± 129 mm^3; Tumor volume (x ± S) ([3]; at day 19 after grouping): 1761 ± 212 mm^3; Tumor volume (x ± S) ([3]; at day 22 after grouping): 2216 ± 126 mm^3; Tumor volume (x ± S) ([3]; at the day of grouping): 160 ± 11 mm^3; average body weight of the mice increased by ([4]; at day 22 after grouping): 1.3%; decrease in the body weight of mice during the experiment ([4]; during the experiment): no mouse in the Example 7 15 mg/kg group had a decrease in the body weight
O=C(Nc1ccc(OC(F)(F)Cl)cc1)c1cnc(N2CC[C@@H](O)C2)c(-c2nccnn2)c1 [Example 6, (R)-6-(3-hydroxypyrrolidin-1-yl)-5-(1,2,4-triazin-3-yl)-N-(4-(chlorodifluoromethoxy)phenyl)nicotinamide]							> 1000 nM	> 1000 nM	
O=C(Nc1ccc(OC(F)(F)Cl)cc1)c1cnc(N2CC[C@@H](O)C2)c(-c2cccnn2)c1 [Example 2, (R)-6-(3-hydroxypyrrolidin-1-yl)-5-(pyridazine-3-yl)-N-(4-(chlorodifluoromethoxy)phenyl)nicotinamide]							100 to 500 nM	> 1000 nM	

Reference: patent US11091462B2, “(Hetero)arylamide compound for inhibiting protein kinase activity” (Shenzhen TargetRx, Inc., priority 2017, dated 2021)
